Reference: article PMC8607422, “Development of a novel TLR8 agonist for cancer immunotherapy” (Molecular Biomedicine, 2020)

Key:
[1] = tested on: EMT6 mouse breast cancer cells; experiment: EMT6 mouse syngeneic breast cancer model; type: in vivo; details: AZD-1775 30 mg/kg po bid
Procedure: All the animal experiments were conducted following Association for Assessment and Accreditation of Laboratory Animal Care (AAALAC)‘s guideline. The animal protocols were approved by the Institutional Animal Care and Use Committee (IACUC). Cell lines were purchased from credible vendors including ATCC. After tumor cell inoculation, the animals were checked daily for morbidity and mortality. At the time of routine monitoring, the animals were checked for any effects of tumor growth and treatment on the animals’ well-being such as mobility, food and water consumption, body weight gain/loss, matting and any other abnormalities. Clinical observations were recorded. Tumor volumes were measured twice a week in two dimensions using a caliper and the volume was expressed in mm^3 using the formula: V = 0.5 a × b^2 where a and b are the long and short diameters of the tumor, respectively. The procedures of dosing as well as tumor and body weight measurement were conducted in a laminar flow cabinet.
For EMT6 experiments, EMT6 mouse breast cancer cells were cultured in vitro as a monolayer culture in RPMI1640 medium supplemented with 10% fetal bovine serum and 1% penicillin/streptomycin at 37°C in an atmosphere of 5% CO2 in air. […] The cells growing in the exponential growth phase were harvested and counted for tumor inoculation. […]

hTLR7 = target: T1, hTLR7 (Homo sapiens, UniProt Q9NYK1); experiment: HEK-Blue hTLR7 SEAP reporter agonist assay; type: cell-based; details: positive control
T1 construct: host or cells: HEK-Blue hTLR7
T1 sequence (Q9NYK1 27-1049): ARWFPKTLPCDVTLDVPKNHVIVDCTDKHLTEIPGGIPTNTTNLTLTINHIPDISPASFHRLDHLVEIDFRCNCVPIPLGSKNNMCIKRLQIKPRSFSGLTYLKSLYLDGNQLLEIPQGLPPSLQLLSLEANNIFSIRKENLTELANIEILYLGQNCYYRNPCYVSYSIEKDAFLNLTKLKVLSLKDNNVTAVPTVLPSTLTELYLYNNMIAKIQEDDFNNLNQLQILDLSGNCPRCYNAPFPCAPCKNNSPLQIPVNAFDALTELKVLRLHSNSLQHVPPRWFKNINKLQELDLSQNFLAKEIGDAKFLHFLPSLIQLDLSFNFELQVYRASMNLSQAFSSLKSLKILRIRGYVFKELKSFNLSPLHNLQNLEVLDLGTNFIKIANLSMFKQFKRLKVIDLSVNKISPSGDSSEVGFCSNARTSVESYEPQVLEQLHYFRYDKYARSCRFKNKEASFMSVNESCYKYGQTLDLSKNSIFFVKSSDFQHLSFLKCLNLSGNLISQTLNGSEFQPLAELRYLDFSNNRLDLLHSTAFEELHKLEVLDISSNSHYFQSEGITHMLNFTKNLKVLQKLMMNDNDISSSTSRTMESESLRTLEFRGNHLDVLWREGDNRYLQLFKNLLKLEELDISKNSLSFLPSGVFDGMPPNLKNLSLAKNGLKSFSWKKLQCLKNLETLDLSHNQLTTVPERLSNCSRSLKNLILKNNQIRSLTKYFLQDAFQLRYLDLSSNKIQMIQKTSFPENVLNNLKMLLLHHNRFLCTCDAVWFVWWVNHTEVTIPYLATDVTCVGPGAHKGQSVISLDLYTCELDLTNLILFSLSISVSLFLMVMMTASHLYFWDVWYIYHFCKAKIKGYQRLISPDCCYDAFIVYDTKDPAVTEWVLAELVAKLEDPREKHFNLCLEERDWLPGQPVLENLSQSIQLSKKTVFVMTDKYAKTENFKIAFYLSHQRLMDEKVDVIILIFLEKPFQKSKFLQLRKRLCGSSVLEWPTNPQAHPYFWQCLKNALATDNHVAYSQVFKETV
From the text: HEK-Blue™ hTLR4, 7, 8 and 9 cell lines were purchased from InvivoGen (Hong Kong). The cells express the human TLR gene and NF-κB/AP-1-inducible SEAP (secreted embryonic alkaline phosphatase) reporter gene. SEAP levels produced upon TLR stimulation can be determined by QUANTI-Blue™. In the cell-based assay, the main reagents used were QUANTI-Blue™ (InvivoGen) and ATPlite 1 Step (Perkin Elmer). The main instruments used were the microplate reader SpectraMax 340PC (Molecular Device) and Envision (Perkin Elmer). Motolimod and DN052 were synthesized in house. […] The compounds were in 10 mM stock solution in DMSO and stored at − 20°C. The compounds were serially diluted in the concentration range from 0.5 nM to 15 μM (up to 50 μM in the hTLR4, hTLR7 and hTLR9 assays) and added to 96-well plates. DMSO was used as the negative control. LPS-EK, R848, motolimod and ODN2006 were used as the positive control for TLR4, 7, 8 and 9, respectively. The cells were cultured and treated with the compounds at 37°C, 5%CO2 for 24 h. […] After 1.5 h of incubation, the optical density was measured using the spectrophotometer at 650 nm in the microplate reader of SpectraMax 340PC. The cell viability of each well was determined using ATPlite 1 Step following the manufacturer’s instruction. The luminescence signal in each well of plates was measured in the microplate reader of Envision.

SMILES | response of EMT6 model to single agent [1] | activity of positive control in TLR7 assay (hTLR7)
C=CCn1c(=O)c2cnc(Nc3ccc(N4CCN(C)CC4)cc3)nc2n1-c1cccc(C(C)(C)O)n1 [AZD-1775] | largely resistant | 
CCOCc1nc2c(N)nc3ccccc3c2n1CC(C)(C)O [R848] |  | active
